{"source": "patent US9096832B2", "about": "“Differentiation of human embryonic stem cells” (LifeScan, Inc., priority 2007, dated 2015)", "key": {"[1]": {"test_system": "H9P49 and H1P46 embryonic stem cells", "assay": "Definitive endoderm on MATRIGEL: effective dose of activin A with GSK-3B inhibitor or Wnt-3a", "type": "cell-based, human", "description": "FIG. 31 panels a-d is for H9P49 cells and panels e-f is for H1P46 cells."}, "[2]": {"test_system": "human embryonic stem cell line H9", "assay": "Cells from […] differentiated on MEFs: role of Wnt-3a (real-time PCR, FACS)", "type": "cell-based", "method": "Cells from the human embryonic stem cell line H9 cultured on […]™ for at least five passages were seeded onto MEF feeders in ES media.\nAt day 3 and 5, the cultures were analyzed by real time PCR for SOX-17, SOX-7, Alpha-fetal protein (AFP), CXCR4, Brychyury (Bry), gooscecoid (GSC), HNF-3 beta, GATA4, hTERT and Oct4. AFP and SOX-7 are regarded as visceral endoderm markers while GATA4, HNF-3beta and SOX-17 represent definite endoderm markers and GSC, Bry, and CXCR4 represent markers of primitive streak. hTERT and Oct-4 are markers for self renewal and pluripotency respectively. FACS analysis was also performed at day 3 and 5."}, "[3]": {"test_system": "human embryonic stem cell line H9", "assay": "Cytokine array (RayBiotech) of cell lysates and conditioned media, Activin A +/- Wnt3a (Table VII)", "type": "cell-based", "set-up": "Angiogenin / BDNF / BMP-4 / BMP-6 / CK beta 8-1 / Eotaxin-3 / Flt-3 Ligand / Fractalkine / GCP-2 / GDNF / GM-CSF / I-309 / IFN-gamma / IGFBP-1 / IGFBP-2 / IGFBP-4 / IL-10 / IL-13 / IL-15 / IL-1alpha / IL-1beta / IL-1ra / IL-3 / IL-5 / Leptin / MCP-1 / MIP-1-delta / NT-3 / RANTES / SCF / TGF-beta 1 / TNF-beta / Acrp30 / AgRP / AxI / bFGF: unit not given here", "settings": "H9 day 5, samples 1,2", "method": "At passage 54, cells were differentiated in the presence of 100 ng/mlActivinA+/−10 ng/mlWnt3a for 2 days in 0.5% FBS DMEM/F12. […]\nCell lysates were prepared from cells of each treatment group, with a mammalian cell lysis kit (Sigma-Aldrich,MO). Conditioned media from each treatment group was collected and concentrated. Cytokine array analysis was completed using Cytokine Array panels provided by RayBiotech, GA (http://www.raybiotech.com/). […] For each panel, positive and negative controls are also included."}}, "note": "Several values for one entry are separate records, joined by “and”; a condition that tells them apart may be missing. Identical values can stand only once."}
{"substance": "Activin A: activin A (a member of the TGFβ superfamily), R&D Systems; 'w/o wnt' in Table VII = 100 ng/ml Activin A without Wnt3a", "values": [{"measurement": "expression of definitive endoderm markers", "setting": "[1]; 50 ng/ml of AA+20 ng/ml of Wnt-3A or 100 nM GSK-3B inhibitor IX", "value": "robust expression"}, {"measurement": "cell fate at lower doses of activin A", "setting": "[1]; lower doses of activin A", "value": "formation of extraembryonic endoderm"}, {"measurement": "CXCR4 positive cells (FACS)", "setting": "[2]; day 3, high concentration of Activin A", "value": "32-42%"}, {"measurement": "cells expressing CXCR4 (FACS)", "setting": "[2]; day 5, high concentration of activin A", "value": "28-32%"}, {"measurement": "AFP expression", "setting": "[2]; lower concentration of Activin A, regardless of Wnt3a", "value": "very high"}, {"measurement": "Acrp30", "setting": "[3]; Cell conditioned media", "value": "1,797.52 and 1,319.88"}, {"measurement": "AgRP", "setting": "[3]; Cell conditioned media", "value": "378.17 and 195.90"}, {"measurement": "Amphiregulin", "setting": "[3]; Cell conditioned media", "value": "250.52 and 151.01"}, {"measurement": "Angiogenin", "setting": "[3]; Cell conditioned media", "value": "13,726.35 and 11,749.55"}, {"measurement": "Angiopoietin-2", "setting": "[3]; Cell conditioned media", "value": "655.82 and 632.60"}, {"measurement": "AxI", "setting": "[3]; Cell conditioned media", "value": "401.31 and 324.05"}, {"measurement": "BDNF", "setting": "[3]; Cell conditioned media", "value": "689.22 and 563.39"}, {"measurement": "BMP-4", "setting": "[3]; Cell conditioned media", "value": "583.40 and 541.83"}, {"measurement": "BMP-6", "setting": "[3]; Cell conditioned media", "value": "354.91 and 355.28"}, {"measurement": "CK beta 8-1", "setting": "[3]; Cell conditioned media", "value": "17.79 and 25.31"}, {"measurement": "CNTF", "setting": "[3]; Cell conditioned media", "value": "282.81 and 211.86"}, {"measurement": "EGF", "setting": "[3]; Cell conditioned media", "value": "1,681.85 and 1,406.12"}, {"measurement": "Eotaxin", "setting": "[3]; Cell conditioned media", "value": "207.89 and 199.67"}, {"measurement": "Eotaxin-2", "setting": "[3]; Cell conditioned media", "value": "890.56 and 744.31"}, {"measurement": "Eotaxin-3", "setting": "[3]; Cell conditioned media", "value": "975.77 and 665.56"}, {"measurement": "FGF-7", "setting": "[3]; Cell conditioned media", "value": "449.49 and 352.47"}, {"measurement": "Flt-3 Ligand", "setting": "[3]; Cell conditioned media", "value": "315.58 and 277.47"}, {"measurement": "Fractalkine", "setting": "[3]; Cell conditioned media", "value": "120.80 and 145.30"}, {"measurement": "GCP-2", "setting": "[3]; Cell conditioned media", "value": "203.21 and 166.86"}, {"measurement": "GDNF", "setting": "[3]; Cell conditioned media", "value": "176.99 and 194.98"}, {"measurement": "GM-CSF", "setting": "[3]; Cell conditioned media", "value": "777.25 and 722.75"}, {"measurement": "IFN-gamma", "setting": "[3]; Cell conditioned media", "value": "283.74 and 559.64"}, {"measurement": "IGF-I", "setting": "[3]; Cell conditioned media", "value": "88.96 and 148.11"}, {"measurement": "IGFBP-1", "setting": "[3]; Cell conditioned media", "value": "33.71 and 24.37"}, {"measurement": "IGFBP-2", "setting": "[3]; Cell conditioned media", "value": "27,656.85 and 28,473.95"}, {"measurement": "IGFBP-4", "setting": "[3]; Cell conditioned media", "value": "10,091.09 and 6,029.45"}, {"measurement": "IL-1alpha", "setting": "[3]; Cell conditioned media", "value": "10,155.70 and 5,842.90"}, {"measurement": "IL-1beta", "setting": "[3]; Cell conditioned media", "value": "117.99 and 75.93"}, {"measurement": "IL-1ra", "setting": "[3]; Cell conditioned media", "value": "142.34 and 93.74"}, {"measurement": "IL-2", "setting": "[3]; Cell conditioned media", "value": "188.22 and 363.72"}, {"measurement": "IL-3", "setting": "[3]; Cell conditioned media", "value": "4,598.86 and 5,260.77"}, {"measurement": "IL-4", "setting": "[3]; Cell conditioned media", "value": "357.72 and 239.04"}, {"measurement": "IL-6", "setting": "[3]; Cell conditioned media", "value": "7,377.28 and 9,527.88"}, {"measurement": "IL-7", "setting": "[3]; Cell conditioned media", "value": "456.98 and 430.27"}, {"measurement": "IL-10", "setting": "[3]; Cell conditioned media", "value": "722.93 and 564.32"}, {"measurement": "IL-16", "setting": "[3]; Cell conditioned media", "value": "259.39 and 214.67"}, {"measurement": "LIGHT", "setting": "[3]; Cell conditioned media", "value": "619.92 and 453.71"}, {"measurement": "Leptin", "setting": "[3]; Cell conditioned media", "value": "2,999.42 and 2,016.38"}, {"measurement": "M-CSF", "setting": "[3]; Cell conditioned media", "value": "529.09 and 269.04"}, {"measurement": "MCP-1", "setting": "[3]; Cell conditioned media", "value": "572.17 and 500.58"}, {"measurement": "MCP-4", "setting": "[3]; Cell conditioned media", "value": "123.61 and 61.87"}, {"measurement": "MIG", "setting": "[3]; Cell conditioned media", "value": "272.50 and 486.52"}, {"measurement": "NAP-2", "setting": "[3]; Cell conditioned media", "value": "97.39 and 110.61"}, {"measurement": "NT-3", "setting": "[3]; Cell conditioned media", "value": "97.39 and 171.55"}, {"measurement": "PDGF-BB", "setting": "[3]; Cell conditioned media", "value": "4,729.96 and 8,521.09"}, {"measurement": "RANTES", "setting": "[3]; Cell conditioned media", "value": "393.31 and 347.78"}, {"measurement": "SCF", "setting": "[3]; Cell conditioned media", "value": "691.09 and 487.46"}, {"measurement": "TGF-beta 1", "setting": "[3]; Cell conditioned media", "value": "752.90 and 740.56"}, {"measurement": "TGF-beta 3", "setting": "[3]; Cell conditioned media", "value": "111.44 and 115.30"}, {"measurement": "TNF-beta", "setting": "[3]; Cell conditioned media", "value": "675.17 and 671.19"}, {"measurement": "bFGF", "setting": "[3]; Cell conditioned media", "value": "7,948.03 and 4,993.83"}, {"measurement": "Amphiregulin", "setting": "[3]; Cell lysate", "value": "17.50 and 15.44"}, {"measurement": "AxI", "setting": "[3]; Cell lysate", "value": "637.50 and 795.83"}, {"measurement": "BDNF", "setting": "[3]; Cell lysate", "value": "167.50 and 167.82"}, {"measurement": "BMP-4", "setting": "[3]; Cell lysate", "value": "247.00 and 273.70"}, {"measurement": "CK beta 8-1", "setting": "[3]; Cell lysate", "value": "1.00 and 1.13"}, {"measurement": "Eotaxin-2", "setting": "[3]; Cell lysate", "value": "262.00 and 336.77"}, {"measurement": "Eotaxin-3", "setting": "[3]; Cell lysate", "value": "184.50 and 284.96"}, {"measurement": "FGF-6", "setting": "[3]; Cell lysate", "value": "629.00 and 379.57"}, {"measurement": "GM-CSF", "setting": "[3]; Cell lysate", "value": "433.00 and 636.37"}, {"measurement": "I-309", "setting": "[3]; Cell lysate", "value": "152.50 and 246.10"}, {"measurement": "IFN-gamma", "setting": "[3]; Cell lysate", "value": "349.00 and 441.52"}, {"measurement": "IGFBP-2", "setting": "[3]; Cell lysate", "value": "3,785.50 and 5,554.45"}, {"measurement": "IGFBP-4", "setting": "[3]; Cell lysate", "value": "5,553.00 and 6,043.27"}, {"measurement": "IL-1alpha", "setting": "[3]; Cell lysate", "value": "1,236.00 and 1,216.99"}, {"measurement": "IL-1beta", "setting": "[3]; Cell lysate", "value": "1.00 and 1.13"}, {"measurement": "IL-1ra", "setting": "[3]; Cell lysate", "value": "33.00 and 25.91"}, {"measurement": "IL-5", "setting": "[3]; Cell lysate", "value": "400.50 and 555.84"}, {"measurement": "IL-6", "setting": "[3]; Cell lysate", "value": "828.50 and 516.98"}, {"measurement": "IL-7", "setting": "[3]; Cell lysate", "value": "190.00 and 313.12"}, {"measurement": "IL-13", "setting": "[3]; Cell lysate", "value": "428.50 and 555.84"}, {"measurement": "IL-15", "setting": "[3]; Cell lysate", "value": "599.50 and 808.13"}, {"measurement": "Leptin", "setting": "[3]; Cell lysate", "value": "900.50 and 617.79"}, {"measurement": "MCP-1", "setting": "[3]; Cell lysate", "value": "242.50 and 282.71"}, {"measurement": "MIG", "setting": "[3]; Cell lysate", "value": "291.00 and 226.39"}, {"measurement": "MIP-1-delta", "setting": "[3]; Cell lysate", "value": "1.50 and 1.13"}, {"measurement": "NT-3", "setting": "[3]; Cell lysate", "value": "1.00 and 1.13"}, {"measurement": "SCF", "setting": "[3]; Cell lysate", "value": "74.50 and 148.67"}, {"measurement": "TGF-beta 1", "setting": "[3]; Cell lysate", "value": "362.00 and 230.33"}, {"measurement": "TNF-alpha", "setting": "[3]; Cell lysate", "value": "431.00 and 579.49"}, {"measurement": "TNF-beta", "setting": "[3]; Cell lysate", "value": "241.00 and 342.40"}, {"measurement": "bFGF", "setting": "[3]; Cell lysate", "value": "59,820.50 and 54,057.29"}]}
